What was measured:
[1] = test system: blood-brain barrier coculture model (brain capillary endothelial cells and astrocytes); experiment: Blood-brain barrier coculture model, permeability measured as TEER; format: cell-based, bovine brain capillary endothelial cells; rat astrocytes; conditions: TNF-α (50 ng/ml) and/or IL-1β (5 ng/ml) added to the BBB coculture model; n=3; FIG. 2
Experimental: A blood-brain barrier coculture model was prepared by a method that had previously been reported (Eur. J. Pharm. Sci., 12: 215-222, 2001). Specifically, brain microcapillary endothelial cells and rat astrocytes were isolated, and the two types of cells were cultured on both sides of a Transwell™ filter, so as to prepare a coculture model. The preparation method of such a coculture model will be described below.
A brain capillary was isolated from a bovine brain. The meninx and white matter were eliminated therefrom, and the gray matter was recovered in DMEM (DMEM+S) to which 10% fetal calf serum had been added. Vascular fragments were prepared by homogenizing by hand, using a Wheaton homogenizer, and they were then captured on a 150-μm nylon mesh. The blood vessel was digested with collagenase, trypsin and DNAseI, in DMEM+S at 37° C. for 1 hour. […]
The brain capillary was inoculated into a plastic flask used for tissue culture, which had been covered with type IV collagen and fibronectin, and was allowed to adhere to a medium for 4 hours. Thereafter, the medium was exchanged with a growth medium (DMEM+S to which a 50% (v/v) astrocyte-conditioned medium and 125 μg/ml heparin had been added), and growing cells (large quantities of brain capillary endothelial cells and only small quantities of peritheliums) were cultured at 37° C. in 10% CO2. […]

[2] = test system: experimental autoimmune encephalomyelitis (EAE) model rats; experiment: EAE model rats: cytokines in spinal fluid, protein ratio and blood-brain barrier permeability; format: in vivo, rat; conditions: 3 mg/kg/day i.p., at 10, 11 and 12 days after sensitization, n=3, FIG. 7
Experimental: (§1) Experimental autoimmune encephalomyelitis (EAE) model rats were prepared by known methods (Int. J. Immunopharmacol, 7: 497-503, 1995). First, an encephalitogenic emulsion consisting of equivalent amounts of Guinea pig spinal cord, sterile phosphate buffered saline (PBS), and Freund's incomplete adjuvant was prepared. Thereafter, 10 mg/ml Mycobacterium tuberculosis H37Ra (Difco Laboratories) was added to the emulsion. Rats (inbred male Lewis rats; body weight: 200 to 250 g) were inoculated with 0.1 ml each of the thus obtained emulsion by subcutaneous administration of the emulsion to both plantae of the hind legs thereof, so as to prepare EAE model rats.
With regard to the control rats and EAE model rats, the concentrations of TNF-α and IL-1β in blood plasma and in spinal fluid, the protein ratio in spinal fluid/blood plasma, and blood-brain barrier permeability (the ratio of the concentration (Kp, app) of sodium fluorescein in brain/blood plasma, 20 minutes after administration by intravenous injection) were measured, in both a case where edaravone was administered or a case where edaravone was not administered. The terms “Kp” and “app” indicate apparent distribution ratios, which are values obtained by dividing the concentration of fluorescein in brain tissues by the concentration thereof in blood plasma after intravenous injection of the fluorescein (wherein the values are multiplied by 100, so as to be expressed on a percentage basis). It is to be noted that the specific gravity of brain tissues is expressed as 1 (because the unit of concentration is expressed as/g tissue weight). The amount of edaravone administered was set at 3 mg/kg/day (intraperitoneal administration). From 10 days after sensitization (administration of an antigen solution), edaravone was administered at intervals of 24 hours for 3 days (that is, 3 administrations at 10 days, 11 days, and 12 days after sensitization).

[3] = test system: experimental autoimmune encephalomyelitis (EAE) model rats; experiment: EAE model rats: limb neuroparalysis score (Paul's clinical score); format: in vivo, rat; conditions: edaravone 3 mg/kg/day i.p., dexamethasone 1 mg/kg/day i.p., n=3, FIG. 8
Experimental: as §1
Moreover, limb neuroparalysis scores were evaluated in a group of EAE model rats to which no agents were administered (control), a group of EAE model rats to which dexamethasone was administered (1 mg/kg/day, intraperitoneal administration), and a group of EAE model rats to which edaravone was administered (3 mg/kg/day, intraperitoneal administration). The limb neuroparalysis scores were evaluated in accordance with the following standards.

[4] = reported in Kawai et al. 1997; Wu et al. 2000; cited from earlier work

Compound: IL-1β: interleukin-1 beta, inflammatory cytokine
- TEER (transcellular endothelial electrical resistance) [1]: significantly reduced

Compound: TNF-α
- TEER (transcellular endothelial electrical resistance) [1]: significantly reduced

Compound: CC1=NN(c2ccccc2)C(=O)C1 [edaravone, 3-methyl-1-phenyl-2-pyrazolin-5-one]
- increased concentration of IL-1β in spinal fluid [2]: inhibited
- increased concentration of TNF-α in spinal fluid [2]: inhibited
- increased protein ratio in spinal fluid/blood plasma [2]: inhibited
- limb neuroparalysis scores [3]: improved
- reactivity to active oxygen [4]: high reactivity

From patent publication US20060111418A1, “Blood-brain barrier disruption inhibitor” (Mitsubishi Pharma Corporation, priority 2003, published 2006)
